From US8962683B2, “Medium chain fatty acids applicable as anti-microbial agents” (Nutrition Sciences NV, priority 2004, dated 2015)

Experiments:
[1] = system: Campylobacter jejuni VC 5, VC 6 and VC 7 strains; assay: Effect of MCFA on growth and survival of Campylobacter sp. isolated from poultry caecum; format: cell-based; settings: medium pH 5.0; for relative antimicrobial effect on the tested Campylobacter strains: comparison between MCFA; for antimicrobial activity against Campylobacter strains (CFU/ml, FIGS. 1-9): micro-aerobic, tested concentrations, 0 and 180 minutes
Method: In this example, the MIC values of different MCFA against Campylobacter sp. isolated from poultry caecum were determined.
Three tenfold dilutions of a 10% suspension of three types of MCFA's (C6, C8 and C10) were prepared in distilled water. To obtain the desired concentrations, 1.5, 0.75 and 0.36 ml of these dilutions were pipetted in petri dishes and carefully mixed with 15 ml molten growth medium. A suitable fermentation medium was used with a pH of 5.0.
Isolated Campylobacter strains were grown in suitable fermentation medium and incubated at 37° C. under micro-aerobic conditions by evacuating 80% of the normal atmosphere and introducing a gas mixture of 8% CO2, 8% H2 and 84% N2 into the jar. Inocula were prepared by diluting the cultures in buffered saline to a density of 0.5 on the McFarland turbidity scale and diluted 40-fold before inoculating. Plates were seeded with inoculum. Control plates of media without the product were inoculated at the end of the procedure. All plates were incubated at 37° C. under appropriate atmosphere. Readings were performed after 48 h. Campylobacter was counted after incubation.
These figures represent the number of colony forming units (CFU)/ml of Campylobacter jejuni VC 5 strain (FIGS. 1, 4, 7), Campylobacter jejuni VC 6 strain (FIGS. 2, 5, 8), and Campylobacter jejuni VC 7 strain (FIGS. 3, 6, 9) at various concentrations of MCFA and at two different time points (0 and 180 minutes).

E. coli K88 = assay: Antimicrobial effect of C6, C8 and C10 on E. coli K88 in acidified feed suspension (gastric simulation); format: cell-based; settings: 20% feed suspension pH 4.0
Method: In this example the anti-microbial activity of C6 and/or C8 and/or C10 MCFA against E. coli K88 was evaluated. The preparation of the test solution was as follows. to 1 kg feed (composition Table 6) an exactly determined quantity of E. coli K 88 was added. Subsequently, a suspension of 20% feed and 80% physiologic solution (0,85% saline) was created. To simulate the 20%-suspension in a gastric environment, a pH of 4.0 with 0.1 N HCl was established.
The acidified suspension was distributed in samples of 100 ml. Test substances were added in different concentrations as mentioned in table 7.
A microbial count at t=0 was executed. Samples were incubated during 3 h at 37° C. Samples were removed after 3 h and pH and microbial count were determined. The E. coli strains were counted on a Coli ID medium (Bio Mérieux, 42017).
The planned observations were: • a. Microbial count of control sample (blank) on t=0 • b. Microbial count of control sample (blank) and treatments on t=3 h. Table 8 depicts the calculated results proving the effectiveness of the anti-microbial effectiveness in the stomach of the different MCFA

[2] = 0.06% test substance, T = 3 h at 37° C.
[3] = 0.125% test substance, T = 3 h at 37° C.
[4] = 0.250% test substance, T = 3 h at 37° C.
[5] = 0.500% test substance, T = 3 h at 37° C.

SMILES	relative antimicrobial effect on the tested Campylobacter strains [1]	antimicrobial activity against Campylobacter strains (CFU/ml, FIGS. 1-9) [1]	Microbial count (E. coli K88; 0.06% test substance, T = 0 h)	Microbial count (E. coli K88; [2])	Microbial count (E. coli K88; 0.125% test substance, T = 0 h)	Microbial count (E. coli K88; [3])	Microbial count (E. coli K88; 0.250% test substance, T = 0 h)	Microbial count (E. coli K88; [4])	Microbial count (E. coli K88; 0.500% test substance, T = 0 h)	Microbial count (E. coli K88; [5])
CCCCCCCC(=O)O [C8, caprylic acid]	stronger antimicrobial effect compared to C6	show antimicrobial activities	5.649 Log (CFU/g)	Total inhibition	5.415 Log (CFU/g)	Total inhibition	Total inhibition	Total inhibition	Total inhibition	Total inhibition
CCCCCCCCCC(=O)O [C10, capric acid]	stronger antimicrobial effect compared to C8	show antimicrobial activities	6.964 Log (CFU/g)	6.854 Log (CFU/g)	6.927 Log (CFU/g)	6.707 Log (CFU/g)	6.966 Log (CFU/g)	4.708 Log (CFU/g)	6.816 Log (CFU/g)	Total inhibition
CCCCCC(=O)O [C6, caproic acid]	–	show antimicrobial activities	5.708 Log (CFU/g)	4.160 Log (CFU/g)	5.700 Log (CFU/g)	Total inhibition	4.920 Log (CFU/g)	Total inhibition	Total inhibition	Total inhibition
